Assay results reported in US20050221328A1, “Inhibitors of inflammatory gene activity and cholesterol biosynthesis” (Wyeth, priority 2002, published 2005).
Values belong to the molecule of their own block, whether it stands above or below them.

Key:
human SHP promoter = assay: hSHP promoter luciferase reporter in HepG2 or 293 cells cotransfected with human ERα; type: cell-based; settings: 293 cells with human ERα; for SHP promoter activity, compound alone: 10 nM E2 or 1 uM compound, 24 hours
Description: Referring to FIGS. 11a and 11b, ERα regulation of hSHP promoter activity in human cells was examined. Human HepG2 or 293 cells were cotransfected with a control SV40 driven β-galactosidase plasmid, a luceriferase plasmid driven by 1.4 kb of the human SHP promoter, and an expression plasmid encoding either no protein or human ERα. […] Cell extracts were then analyzed for luciferase activity normalized for β-galactosidase activity.
Referring to FIGS. 12a, 12b, and 12c, ERα regulation of hSHP promoter activity in 293 cells was examined. Referring to FIGS. 12a and 12b, 293 cells were cotransfected with a control SV4O driven […] plasmid, a luceriferase plasmid driven by either 1.4 kb of the human SHP promoter or a synthetic 2×ERE/TK promoter, and an expression plasmid for human ERα. […] Cell extracts were then analyzed for luciferase activity with normalization for β-galaetosidase activity.

SHP = assay: Regulation of SHP expression in mouse liver, six weeks treatment, real time PCR; type: in vivo
Description: Several experiments were conducted to investigate the regulation of SHP expression, as follows. Referring to FIG. 9, ERα regulation of SHP expression in mouse liver was studied. […] Liver expression of SHP was monitored by real time PCR, with normalization for GAPDH expression. […] ICI182780 inhibited this induction.

HepG2 cells = assay: Gene expression in HepG2 cells treated 24 hr with CDCA or GW 4064; type: cell-based, human; settings: HepG2, 24 hr
Description: HepG2 cells were maintained in growth media at 37° C. in a 5% CO2 incubator. The cells were seeded in deficient growth media (phenol red free DMEM (Gibco BRL) supplemented with heat-inactivated 10% FBS, 1% Glutamax, 1% MEM non-essential amino acids, 100 U/ml penicillin and 100 μg/ml streptomycin) at 4-5×10^5 cells per well in a 6 well dish (Falcon). The cells were then placed into serum deficient media for 24 hr before addition of the compounds for an additional 24 hrs. The cells were then harvested for RNA analysis.
To further investigate the possibility that bile acid signaling through FXR can promote inflammatory gene expression, experiments were conducted in the hepatocyte cell line, HepG2. […] HepG2 cells express a number of inflammatory genes including ICAM-1 and M-CSF constitutively (Stonans et al '99 Cytokine 11:151). […] As positive controls, the induction of SHP mRNA and the repression of cyp7a were confirmed.
Referring to FIG. 24a-b, HepG2 cells were treated for 24 hr with increasing concentrations of chenodeoxycholic acid (CDCA). […] Data are reported as mean±SEM for each group. C57BL/6 mice. […] Data are reported as mean±SEM for each group.

[1] = tested on: Fnk, JAB, LIX, bcl-3 and SHP; assay: Liver expression of Fnk, JAB, LIX, bcl-3 and SHP by realtime PCR after estrogen receptor ligand pretreatment and IL-1β; settings: mice; 100 ug/kg/day EE, 1 or 10 mg/kg/day E2, 30 mg/kg/day genistein, 5 mg/kg/day raloxifene, 10 mg/kg/day ICI182780; plus IL-1β
Description: Referring to FIG. 3a, to distinguish these two mechanisms, the IL-1β fold induction of Fnk, JAB, LIX, and bcl-3 and the IL-1β fold repression of SHP was quantified in animals pretreated with vehicle (black bars) or 100 ug/kg/day EE (grey bars). Liver RNA levels of each gene (mean +/−SEM) were determined by realtime PCR of RNA from each individual animal.
Referring to FIGS. 4a, 4b, 4c, 4d and 4e, experiments were conducted to determine whether EE blocks IL-1β induction of gene expression by an estrogen receptor (ER) dependent mechanism. Estrogens can regulate gene expression by many mechanisms including ER independent pathways such as antioxidant mechanisms. […] Liver expression levels of Fnk, JAB, LIX, bcl-3 and SHP (mean +/−SEM) were determined by realtime PCR.
Referring to FIGS. 5a, 5b, 5c, 5d, and 5e, experiments were conducted to determine whether ERα is required for EE regulation of gene expression in the liver. To determine whether ERα or ERβ mediated the EE effects on IL-1β gene expression in the liver, C57BL/6 wild type mice, C57BL/6 ERαKO mice, or 129 ERβKO mice were pretreated with vehicle (black bars) or […] EE (gray bars) for 5 days followed by a 1 hour treatment with IL-1β. Liver expression levels of Fnk, JAB, LIX, bcl-3, and SHP (mean +/−SEM) were quantified by realtime PCR, with expression in animals receiving vehicle+PBS defined as 1.0.

[2] = tested on: hepatic inflammatory gene expression
Description: Ovariectornized C57BL/6 mice (16-20g) (Taconic) were separated into groups of 8. After 5-7 days of recuperation, the mice were fed a casein based diet (#8117, Test Diet, Richmond, IN) for five days. […] At the end of the experimental period, the liver was collected for RNA analysis.
Liver total RNA was prepared using Trizol reagent (BRL) and quantitated by real time RT-PCR using an ABI PRISM 7700 Detection System according to the manufacturer's protocol (Applied Biosystem). The data was analyzed using the Sequence Dector v1.7 software (Applied Biosystems) and normalized to GAPDH using Applied Biosystems primer set.
Feeding C57BL/6 mice a high fat diet containing cholate has been shown previously to induce inflammatory gene expression in the mouse liver after 3-5 weeks (Liao et al '93 JCI 91:2572, Evans et al. '01 Circ Res 89:823 & Miyake et al '00 JBC 275:21805).
To determine whether signaling via FXR was necessary to result in inflammatory gene expression, 1% UDCA was supplemented into the chow diet.
In particular, referring to FIG. 21a-d, C57BL/6 mice were fed either a chow, atherogenic or high fat diet (atherogenic diet without sodium cholate) as indicated. After 5 weeks, hepatic mRNA levels of the indicated genes were determined by real time PCR. […] After 5 days, hepatic mRNA levels of the indicated genes were determined by real time PCR. Data are reported as mean±SEM for each group. Referring to FIG. 23a-b: C57BL/6 mice were fed a chow diet supplemented with 1% ursodeoxycholic acid (UDCA). After 5 days, hepatic mRNA levels of the indicated genes were determined by real time PCR. […] Data are reported as mean±SEM for each group.

[3] = CDCA 1-100 uM or GW 4064 1-1000 nM
[4] = C57BL/6 mice, chow with CA 0.01-1.0%, 5 days

Compound: CC/C(=C(\c1ccccc1)c1ccc(OCCN(C)C)cc1)c1ccccc1 [tamoxifen]
SHP promoter activity, compound alone (human SHP promoter): stimulated
liver SHP mRNA levels, WT animals (SHP; ovariectomized wildtype mice, sc six weeks, 10 ug/kg/day E2, 5 mg/kg/day tamoxifen, 5 mg/kg/day PPT): induced

cyp7a expression (HepG2 cells; positive control): repression
Compound: C[C@H](CCC(=O)O)[C@H]1CC[C@H]2[C@@H]3[C@H](O)C[C@@H]4C[C@H](O)CC[C@]4(C)[C@H]3CC[C@]12C [CDCA, chenodeoxycholic acid]
ICAM-1 expression (HepG2 cells; [3]): induced in a dose dependent manner
M-CSF expression (HepG2 cells; [3]): induced in a dose dependent manner
SHP mRNA (HepG2 cells; positive control): induction

Compound: C[C@]12CC[C@@H]3c4ccc(O)cc4C[C@@H](CCCCCCCCC[S+]([O-])CCCC(F)(F)C(F)(F)F)[C@H]3[C@@H]1CC[C@@H]2O (stereo partly drawn) [ICI-182780]
SHP promoter activity, compound alone (human SHP promoter): inactive alone
effect on E2 activity at SHP promoter (human SHP promoter; 1 uM compound plus 10 nM E2): antagonized
effect on regulation of liver Fnk, JAB, LIX, bcl-3 and SHP expression vs IL-1β alone [1]: no effect
effect on E2 induction of liver SHP mRNA (SHP; WT mice, 10 ug/kg/day E2+5 mg/kg/day ICI182780, six weeks): inhibited

cyp3a expression ([2]; mouse, in vivo): induced
cyp7a expression ([2]; mouse, in vivo): repress
Compound: C[C@H](CCC(=O)O)[C@H]1CC[C@H]2[C@@H]3[C@@H](O)C[C@@H]4C[C@H](O)CC[C@]4(C)[C@H]3CC[C@]12C [UDCA, ursodeoxycholic acid]

Compound: C[C@H](CCC(=O)O)[C@H]1CC[C@H]2[C@@H]3[C@H](O)C[C@@H]4C[C@H](O)CC[C@]4(C)[C@H]3C[C@H](O)[C@]12C [CA, cholic acid]
hepatic ICAM-1 mRNA [2, 4]: dose dependent induction
induction of hepatic RANTES mRNA [2, 4]: 1.75 fold
induction of hepatic TNFα mRNA [2, 4]: 4 fold
induction of hepatic VCAM-1 mRNA [2, 4]: 3 fold
CA supplementation sufficient to induce inflammatory gene expression ([2]; chow fed mice, acute exposure): 0.3%
induction of hepatic SHP expression ([2]; mice fed 1% CA or UDCA, 5 days): only observed with CA
